Patent US8592401B2, “Methods and compounds for vitamin D therapy” (Proventiv Therapeutics, LLC, priority 2007, dated 2013)
Read-outs that look alike come from different tables or passages of the source.

How the values were obtained:
renal FN1 = assay: Renal FN1 (fibronectin 1) expression by real-time PCR in adenine rats; type: in vivo, Sprague Dawley rats; design: extent of suppression of renal FN1 expression, compared to calcitriol-treated animals: dose or concentration left out as unconfirmed; conditions: after 12 days of treatment; for suppression of renal FN1 expression, comparison of the two compounds: 0.1 mg/kg
Method: (§1) Soc. Neph., 17; 107-112]. After 4 weeks, normal diet was given to all animals. A control group receiving normal diet during the entire course of the study was used as normal control animals. After the 4 weeks of adenine diet treatment, animals were dosed i.v. 3×/week for 2 or 8 weeks with calcitriol or 1,25-dihydroxyvitamin D2 at 0.01, 0.05, 0.1, 0.25 and 0.5 mg/kg. Serum, plasma kidney and parathyroid gland were collected after 2 and 8 weeks. iPTH and FGF23 in plasma and serum, respectively, were measured using a commercial Elisa kit. Serum calcium was measured using an ORTHO-CLINICAL VITROS 250 chemistry system or an o-cresolphthalein complexone-based assay. Serum phosphorus was measured using an ORTHO-CLINICAL VITROS 250 chemistry system or an ammonium molybdate-based assay. Fibronectin 1 was measured by real-time PCR from cDNA isolated from kidney.

DBP = target: T1, DBP (Homo sapiens, UniProt P02774); conditions: cited from earlier work
T1 sequence (P02774 17-474): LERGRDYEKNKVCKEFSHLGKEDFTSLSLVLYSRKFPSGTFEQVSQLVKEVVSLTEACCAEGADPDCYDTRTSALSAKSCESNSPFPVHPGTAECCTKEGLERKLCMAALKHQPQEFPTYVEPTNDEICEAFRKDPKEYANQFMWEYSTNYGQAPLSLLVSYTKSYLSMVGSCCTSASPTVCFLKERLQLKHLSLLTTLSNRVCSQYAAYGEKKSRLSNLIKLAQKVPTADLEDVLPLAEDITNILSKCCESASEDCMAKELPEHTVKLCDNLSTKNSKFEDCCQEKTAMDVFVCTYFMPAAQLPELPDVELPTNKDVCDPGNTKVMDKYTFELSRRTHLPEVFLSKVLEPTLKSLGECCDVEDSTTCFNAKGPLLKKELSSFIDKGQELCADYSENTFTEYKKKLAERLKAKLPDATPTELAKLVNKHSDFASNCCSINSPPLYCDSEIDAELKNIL

[1] = Stability of compounds in human intestine microsomes; type: in vitro ADME; conditions: microsomes 22 mg/ml, NADPH-generating system, 60 min, 37° C.
Method: Equal parts of 0.1 M phosphate buffer (pH 7.4), NADPH, G-6-P, and G-6-P dehydrogenase were mixed to create a NADPH-generating system, and the final concentration of NADPH, G-6-P, and G-6-P dehydrogenase were 0.8 mM, 8 mM and 0.8 U/ml.
1,25-dihydroxyvitamin D2 and calcitriol were added in to the NADPH-generating system. The final concentrations of the two vitamin D compounds were each […]. A reaction was initiated by the addition of the human intestine microsomes (22 mg/ml) after a 5 min pre-incubation of the reaction at 37° C. After incubation for 60 min, the reaction was terminated by addition of cold 100% acetonitrile. An aliquot of the samples was injected into HPLC to determine the % remaining of the compound.

[2] = tested on: rats having adenine-induced kidney failure; assay: iPTH levels in rats having adenine-induced kidney failure; type: in vivo, Sprague Dawley rats; conditions: for suppression of serum PTH (iPTH) levels: adenine treated animals, i.v. 3×/week, after two weeks of dosing
Method: as §1, with “3×/week for 2 or 8 weeks with calcitriol or 1,25-dihydroxyvitamin D2 at 0.01, 0.05, 0.1, 0.25 and 0.5 mg/kg.” left out
For reference, PTH values are also shown for animals in the study fed a normal diet (without adenine).
(§2) These findings indicate that L25-dihydroxyvitamin D2 appears to be less likely to cause calcemia than 1,25-dihydroxyvitamin D3 at doses that have equivalent efficacy.

[3] = tested on: ESRD human patients undergoing chronic hemodialysis; type: in vivo
Description: Up to 100 ESRD (End Stage Renal Disease) human patients undergoing chronic hemodialysis are studied in a multicenter, double-blind, placebo-controlled study. The selected patients reside in two major metropolitan areas within the continental U.S., have ages between 20 and 75 years, and have a history of secondary hyperparathyroidism. They have been on hemodialysis for at least four months, have a normal (or near normal) serum albumin, and have controlled serum phosphorus (often by using oral calcium phosphate binders).
On admission to the study, each patient is assigned at random to one of two treatment groups. One of these groups receives two consecutive 12-week courses of therapy with 1,25-dihydroxyvitamin D2; the other group receives one 12-week course of therapy with 1,25-dihydroxyvitamin D2 without interruption, by one 12-week course of placebo therapy. Each patient discontinues any 1α,25-dihydroxyvitamin D3 therapy for eight weeks prior to initiating 1,25-dihydroxyvitamin D2 therapy. Throughout this eight-week washout (or control) period and the two subsequent 12-week treatment periods, patients are monitored weekly for serum calcium and phosphorus. Serum intact PTH is monitored weekly or biweekly, and bone-specific serum markers, serum vitamin D metabolites, serum albumin, blood chemistries, hemoglobin and hematocrit are monitored at selected intervals.
During the study, patients undergo routine hemodialysis (three times per week) using a 1.24 mM calcium dialysate and ingest calcium phosphate binders (such as calcium carbonate or calcium acetate) in an amount sufficient to keep serum phosphate maintained in a range of 3.5 to 5.5 mg/dL. Patients who develop persistent mild hypercalcemia or mild hyperphosphatemia during the treatment periods reduce their 1,25-dihydroxyvitamin D2 dosage. […] Such patients are monitored at twice-weekly intervals until the serum calcium or phosphorus is normalized, and resume 1,25-dihydroxyvitamin D2 dosing.

[4] = tested on: rats having adenine-induced kidney failure; design: species or system Sprague Dawley rats; conditions: rat, in vivo, iv
Method: as §1, §2

C2BBe1 cells = assay: Alkaline phosphatase and CYP24 in C2BBe1 cells (real-time PCR); type: cell-based; conditions: 100 nM, 10 nM, 8 hours at 37° C.
Method: C2BBe1 cells were treated with […], 100 nM, and 10 nM 1,25-dihydroxyvitamin D2 and calcitriol. Cells were incubated for 8 hours at 37° C. The cells were then lysed in 1 ml of TRIzol reagent. RNA was isolated from cell lysates through phase separation, as per the manufacturer's instructions (INVITROGEN). After cDNA synthesis, real-time PCR was used to quantify alkaline phosphatase and CYP24.

[5] = tested on: subjects with low serum 1,25-dihydroxyvitamin D; assay: Study in subjects with low serum 1,25-dihydroxyvitamin D (Example 1); type: in vivo, human
Method: 1,25-dihydroxyvitamin D2 is used as a treatment for subjects with low serum 1,25-dihydroxyvitamin D in a study involving 50 adults, ages 18-85 years.
The subjects have serum 1,25-dihydroxyvitamin D levels below 20 pg/dL and complete an eight-week baseline period and then 24 weeks of therapy with orally administered 1,25-dihydroxyvitamin D2.
The initial dose of 1,25-dihydroxyvitamin D2 is 1.0 μg, with increases in steps of 0.5 μg/day permitted after four weeks. The maximum dosage is limited to 5.0 μg/day of 1,25-dihydroxyvitamin D2. Subjects are monitored at regular intervals for plasma iPTH, serum calcium and phosphorus, 24-hour and fasting urinary calcium, bone-specific serum markers, plasma total 1,25-dihydroxyvitamin D2 and routine blood chemistries and hematologies.

[6] = tested on: rats having adenine-induced kidney failure; assay: Serum phosphorous in rats having adenine-induced kidney failure; type: in vivo, Sprague Dawley rats
Method: as §1

bone resorption = conditions: in vivo; cited from earlier work
[7] = tested on: markers of bone metabolism; conditions: in culture; cited from earlier work
Caco-2 cells = conditions: cited from earlier work
[8] = cited from earlier work
healthy male humans = conditions: cited from earlier work

C=C1/C(=C\C=C2/CCC[C@]3(C)[C@@H]([C@H](C)/C=C/[C@H](C)C(C)(C)O)CC[C@@H]23)C[C@@H](O)C[C@@H]1O [1,25-dihydroxyvitamin D2]
suppression of renal FN1 expression, comparison of the two compounds (renal FN1): No difference in suppression | extent of suppression of renal FN1 expression, compared to calcitriol-treated animals (renal FN1): significantly greater | DBP binding compared with 1,25-dihydroxyvitamin D3 (DBP): no significant difference | metabolic stability (% remaining) in human intestinal microsomes [1]: metabolically unstable | suppression of serum PTH (iPTH) levels [2]: in a dose dependant manner can suppress serum PTH levels | PTH inhibition ([2]; dose of 0.05 μg/kg): about 82.7% | mean serum PTH relative to pretreatment levels ([3]; after initiation of dosing): less than 50 % of pretreatment levels | mean serum PTH in the active group ([3]; end of the second 12-week treatment period): remained controlled | hypercalcemia in patients exhibiting excessive suppression of serum PTH ([3]; human, in vivo): transient mild hypercalcemia is observed | doses showing significant elevation of serum calcium [4]: greater than 0.05 μg/kg | induction of IAP (alkaline phosphatase) activity (C2BBe1 cells): not a potent inducer of IAP activity | serum 1,25-dihydroxyvitamin D levels between doses [5]: within the patients' normal historical physiological range | elevation of serum phosphorous ([6]; adenine rats, i.v. 3×/week, doses 0.01-0.5): significance only at the highest dose

C[C@H](/C=C/[C@H](C)C(C)(C)O)[C@H]1CC[C@H]2/C(=C/C=C3C[C@@H](O)C[C@H](O)C3)CCC[C@]12C [19-nor-1,25-dihydroxyvitamin D2]
affinity for DBP compared to 1,25-dihydroxyvitamin D3 (DBP): 3 fold lower | potency in promoting bone resorption relative to 1,25-dihydroxyvitamin D3 (bone resorption): approximately 10 fold less potent | effects on VDR expression, suppression of cell proliferation, osteocalcin and alkaline phosphatase activity versus 1,25-dihydroxyvitamin D3 [7]: indistinguishable | stimulation of calcium transport (Caco-2 cells): did not show a significant effect | half-life ([8]; healthy patients): 4 to 6 h | half-life ([8]; patients with Stage 4 CKD): 20 h | half-life ([8]; patients with chronic renal failure): 15 h

C=C1CC[C@H](O)C/C1=C/C=C1\CCC[C@]2(C)[C@@H]([C@H](C)/C=C/[C@H](C)C(C)C)CC[C@@H]12 [Vitamin D2, ergocalciferol]
course of 25-hydroxyvitamin D2 levels (healthy male humans; 50,000 IU): fell early and were not different from baseline at 14 days | potency relative to Vitamin D3 (healthy male humans; healthy male humans): less than one-third as potent

C=C1CC[C@H](O)C/C1=C/C=C1\CCC[C@]2(C)[C@@H]([C@H](C)CCCC(C)C)CC[C@@H]12 [Vitamin D3, cholecalciferol]
time of peak of 25-hydroxyvitamin D3 levels (healthy male humans; 50,000 IU): 14 days

C=C1/C(=C\C=C2/CCC[C@]3(C)[C@@H]([C@H](C)CCCC(C)(C)O)CC[C@@H]23)C[C@@H](O)C[C@@H]1O [calcitriol, 1α,25-dihydroxyvitamin D3]
suppression of renal FN1 expression, comparison of the two compounds (renal FN1): No difference in suppression | inhibition at 0.0001 mg/kg ([2]; Rattus norvegicus, read-out: PTH inhibition): ~13.6% | suppression of serum PTH (iPTH) levels [2]: in a dose dependant manner can suppress serum PTH levels | stimulation of calcium transport (Caco-2 cells): 934% | doses showing significant elevation of serum calcium ([4]; Sprague Dawley): greater than 0.10 μg/kg | elevation of serum phosphorous ([6]; rat, in vivo, iv): significant elevation of phosphorous at the two highest doses
